The target in assay [1] is human FOLH1 (Homo sapiens (Human), UniProt Q04609). The experiment in a line: SPR analysis of binding kinetics to biotinylated FOLH1 (Biacore 8K). The note with it: ligand PSMA; for Kon: association rate; for koff: dissociation rate; for Kd: kinetic 1:1 binding model. The protocol: The interaction of PSMA-binding variants with human FOLH1 was measured with Surface Plasmon Resonance (SPR) technology. Biotinylated FOLH1 was captured at a concentration of 30 μg/mL onto a Streptavidin chip.
Binding kinetics of the analytes were measured with a Biacore 8K instrument in two-fold serial dilutions starting at 500 nM down to 1.95 nM in single cycle kinetic measurements. After each cycle, needles were washed with 50% DMSO. To measure the association to the FOLH1 protein, the samples were injected with a flow rate of 30 μL/min for 90 s, followed by 1200 s buffer only to detect the dissociation. The used running buffer was 1×PBS with 0.05% Tween20 and 2% DMSO. The relative response units (RU, Y-axis) are plotted against time (s, X-axis) and analyzed in a kinetic 1:1 binding model.
In a different setup, biotinylated FOLH1 was captured at a concentration of 0.8 μg/mL and the running buffer was 1×PBS with 0.05% Tween20.

The target in assay [2] is Recombinant Human PSMA/FOLH1 Protein (Homo sapiens (Human), UniProt Q04609). Nature of the assay: Inhibition assay (Amplex Red glutamic acid/glutamate oxidase, NAAG substrate). It is filed as biochemical. As to conditions: Target PSMA, average of N replicates; for IC50: PSMA 5 nM, NAAG 40 μM; for Ki: calculated based on Cheng-Prusoff equation. The protocol: Amplex™ Red Glutamic Acid/Glutamate Oxidase Assay Kit Catalog number: A12221 (Thermofisher); Recombinant Human PSMA/FOLH1 Protein, CF (rnd systems); N-Acetyl-Asp-Glu (NAAG) (Sigma Aldrich; 96 well half area plate; Enspire plate reader.
Prepare a working solution of 100 μM Amplex® Red reagent containing 0.25 U/mL HRP, 0.08 U/mL L-glutamate oxidase, 0.5 U/mL 1-glutamate-pyruvate transaminase, 200 μM L-alanine and keep protected from light. […] Final concentration is 5 nM. Transfer 10 μl/well of the inhibitor solution previously prepared in a separate 96 wells/plate.
Pipette 20 μl/well of the working solution prepared above. Incubate the reactions for 30 min at 37° C., protected from light. Because the assay is continuous (not terminated), fluorescence may be measured at multiple time points to follow the kinetics of the reactions. Measure the fluorescence in a fluorescence microplate reader using excitation in the range of 530-560 nm and emission detection at ˜590 nm. Ec50s were determined with GraphPad Prism. Ki is calculated based on Cheng-Prusoff equation.

Sequence of Recombinant Human PSMA/FOLH1 Protein (Q04609 whole entry): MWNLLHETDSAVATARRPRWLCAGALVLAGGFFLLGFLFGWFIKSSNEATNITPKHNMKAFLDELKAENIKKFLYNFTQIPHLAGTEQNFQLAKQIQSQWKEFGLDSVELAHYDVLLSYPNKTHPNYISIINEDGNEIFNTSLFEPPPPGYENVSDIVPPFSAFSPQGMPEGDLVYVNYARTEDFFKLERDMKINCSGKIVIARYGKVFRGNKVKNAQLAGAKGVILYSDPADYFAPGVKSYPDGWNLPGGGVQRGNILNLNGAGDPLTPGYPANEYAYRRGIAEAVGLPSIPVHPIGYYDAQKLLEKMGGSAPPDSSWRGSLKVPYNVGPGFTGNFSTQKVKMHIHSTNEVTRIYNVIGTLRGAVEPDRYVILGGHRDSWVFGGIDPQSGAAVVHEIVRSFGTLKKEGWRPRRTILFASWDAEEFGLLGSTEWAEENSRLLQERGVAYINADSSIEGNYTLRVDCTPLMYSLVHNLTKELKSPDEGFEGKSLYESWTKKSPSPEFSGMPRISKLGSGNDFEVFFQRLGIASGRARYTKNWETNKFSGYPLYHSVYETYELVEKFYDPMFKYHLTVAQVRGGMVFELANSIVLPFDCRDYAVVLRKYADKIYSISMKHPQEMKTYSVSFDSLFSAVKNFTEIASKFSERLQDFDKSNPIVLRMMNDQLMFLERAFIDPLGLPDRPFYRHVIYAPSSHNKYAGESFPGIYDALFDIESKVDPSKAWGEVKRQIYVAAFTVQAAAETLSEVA
Sequence of human FOLH1 (Q04609 whole entry): as above

With `CC(=O)NCCOCCOCCOCCC(=O)NC[C@H]1CC[C@H](C(=O)N[C@@H](Cc2c[nH]c3ccccc23)C(=O)NCCCC[C@H](NC(=O)N[C@@H](CCC(=O)O)C(=O)O)C(=O)O)CC1` (stereo in doubt) [Compound 2], in assay [1], the Kon is on record as 158000 1.ms; the koff is 3.3e-05 s⁻¹; the affinity, expressed as Kd, was 0.208 nM. Besides, in assay [2], the IC50 turned out to be 25.1 nM and the Ki was 0.18 nM.

On to `CC(=O)NCCOCCOCCOCCC(=O)N[C@@H]1C[C@@H](C(=O)N[C@@H](Cc2ccc3ccccc3c2)C(=O)NCCCC[C@H](NC(=O)N[C@@H](CCC(=O)O)C(=O)O)C(=O)O)N(C(=O)CCCOc2cc(C#N)cc(C#N)c2)C1` (stereo in doubt) [Compound 82], for which, in assay [1], the Kon is given as 72200 1.ms, the koff was 0.000381 s⁻¹ and the Kd amounted to 5.27 nM. Further, in assay [2], the IC50 came out at 1.8 nM and the Ki was 0.0129 nM.

For the compound `CC(=O)NCCOCCOCCOCCC(=O)NC[C@H]1CC[C@H](C(=O)N[C@H](Cc2c[nH]c3ccccc23)C(=O)NCCCC[C@H](NC(=O)N[C@@H](CCC(=O)O)C(=O)O)C(=O)O)CC1` [Compound 5], in assay [1], the Kon is recorded as 195000 1.ms, the koff amounted to 0.000543 s⁻¹ and the Kd turned out to be 2.78 nM. Also, in assay [2], the IC50 stood at 81.7 nM and the Ki was 0.584 nM.

Take `CC(=O)NCCOCCOCCOCCC(=O)NC[C@H]1CC[C@H](C(=O)N[C@@H](Cc2ccc(-c3ccccc3)cc2)C(=O)NCCCC[C@H](NC(=O)N[C@@H](CCC(=O)O)C(=O)O)C(=O)O)CC1` [Compound 7]: in assay [1], the Kon is 293000 1.ms, the off-rate constant (koff) was found to be 0.00167 s⁻¹ and binding was put at a Kd of 5.72 nM. In assay [2], the IC50 came to 171 nM and the Ki is 1.23 nM.

In assay [1], `CC(=O)NCCOCCOCCOCCC(=O)NC[C@H]1CC[C@H](C(=O)N[C@@H](Cc2cccc(C(=O)O)c2)C(=O)NCCCC[C@H](NC(=O)N[C@@H](CCC(=O)O)C(=O)O)C(=O)O)CC1` [Compound 10] returned a Kd of 2.02 nM. In assay [2], the IC50 was determined as 21.3 nM and the Ki is 0.152 nM.

`CC(=O)NCCOCCOCCOCCC(=O)NC[C@H]1CC[C@H](C(=O)N[C@@H](Cc2c[nH]c3ccc(F)cc23)C(=O)NCCCC[C@H](NC(=O)N[C@@H](CCC(=O)O)C(=O)O)C(=O)O)CC1` [Compound 12]: in assay [1], the Kon is listed as 250000 1.ms, the koff was 0.000142 s⁻¹ and the Kd is 0.568 nM. Moreover, in assay [2], the IC50 worked out at 41.5 nM and the Ki was 0.297 nM.

With `CC(=O)NCCOCCOCCOCCC(=O)NC[C@H]1CC[C@H](C(=O)N[C@@H](Cc2ccc(N)cc2)C(=O)NCCCC[C@H](NC(=O)N[C@@H](CCC(=O)O)C(=O)O)C(=O)O)CC1` [Compound 14], in assay [1], the Kon was 131000 1.ms, the koff came out at 0.000618 s⁻¹ and binding was characterised by a dissociation constant (Kd) of 4.71 nM. In addition, in assay [2], the IC50 came out at 286 nM and the Ki was 2.05 nM.

As to `CC(=O)NCCOCCOCCOCCC(=O)NC[C@H]1CC[C@H](C(=O)N[C@@H](Cc2ccc(OCc3ccccc3)cc2)C(=O)NCCCC[C@H](NC(=O)N[C@@H](CCC(=O)O)C(=O)O)C(=O)O)CC1` [Compound 16], in assay [1], the Kon was 461000 1.ms; the koff is 0.00356 s⁻¹; the affinity, expressed as Kd, was 7.73 nM. For the same compound, in assay [2], the IC50 is 331 nM and the Ki was 2.37 nM.

Turning to `CC(=O)NCCOCCOCCOCCC(=O)NC[C@H]1CC[C@H](C(=O)N[C@@H](Cc2ccccc2)C(=O)NCCCC[C@H](NC(=O)N[C@@H](CCC(=O)O)C(=O)O)C(=O)O)CC1` [Compound 17], in assay [1], the Kon was 125000 1.ms, the koff came out at 0.000207 s⁻¹ and the dissociation constant Kd was 1.65 nM. In assay [2], the IC50 is 92.6 nM and the Ki is 0.662 nM.

For `CC(=O)NCCOCCOCCOCCC(=O)NC[C@H]1CC[C@H](C(=O)N[C@@H](Cc2ccc3ccccc3c2)C(=O)NCCCC[C@H](NC(=O)N[C@@H](CC(=O)O)C(=O)O)C(=O)O)CC1` [Compound 23], in assay [1], the Kon is reported as 291000 1.ms and the koff was found to be 0.0349 s⁻¹.

For the compound `C#CC[C@H](NC(=O)N[C@@H](CCCCNC(=O)[C@H](Cc1ccc2ccccc2c1)NC(=O)[C@H]1CC[C@H](CNC(=O)CCOCCOCCOCCNC(C)=O)CC1)C(=O)O)C(=O)O` [Compound 50], in assay [2], the IC50 amounted to 17600 nM and the Ki was 126 nM.

In the case of `CC(=O)NCCOCCOCCOCCC(=O)N[C@@H](CCCOc1cc(C#N)cc(C#N)c1)C(=O)N[C@@H](Cc1ccc2ccccc2c1)C(=O)NCCCC[C@H](NC(=O)N[C@@H](CCC(=O)O)C(=O)O)C(=O)O` [Compound 51], in assay [2], the IC50 came to 1710 nM and the Ki was 12.2 nM.

With `CC(=O)NCCOCCOCCOCCC(=O)N[C@@H](CCCOc1cc(C#N)cc(C#N)c1)C(=O)NCCC(=O)N[C@@H](Cc1ccc2ccccc2c1)C(=O)NCCCC[C@H](NC(=O)N[C@@H](CCC(=O)O)C(=O)O)C(=O)O` [Compound 53], in assay [2], the IC50 was found to be 11.2 nM and the Ki is 0.0801 nM.

With `CC(=O)NCCOCCOCCOCCC(=O)N(CCCOc1cc(C#N)cc(C#N)c1)CC(=O)N[C@@H](Cc1ccc2ccccc2c1)C(=O)NCCCC[C@H](NC(=O)N[C@@H](CCC(=O)O)C(=O)O)C(=O)O` [Compound 78], in assay [1], the Kon is on record as 487000 1.ms and the koff came to 0.000208 s⁻¹.

As for `CC(=O)NCCOCCOCCOCCC(=O)N1C[C@H](NC(=O)CCCOc2cc(C#N)cc(C#N)c2)C[C@H]1C(=O)N[C@@H](Cc1ccc2ccccc2c1)C(=O)NCCCC[C@H](NC(=O)N[C@@H](CCC(=O)O)C(=O)O)C(=O)O` [Compound 80], in assay [1], the Kon is recorded as 243000 1.ms and the koff was 0.000599 s⁻¹.

On to `CC(=O)NCCOCCOCCOCCC(=O)N[C@@H]1C[C@@H](C(=O)N[C@@H](Cc2ccc3ccccc3c2)C(=O)NCCCC[C@H](NC(=O)N[C@@H](CCC(=O)O)C(=O)O)C(=O)O)N(C(=O)COc2cc(C#N)cc(C#N)c2)C1` [Compound 81], for which, in assay [1], the Kon is reported as 90000 1.ms and the koff worked out at 0.000371 s⁻¹.

Consider `CC(=O)NCCOCCOCCOCCC(=O)N[C@@H](Cc1ccncc1)C(=O)NCC(=O)N[C@@H](Cc1ccc2ccccc2c1)C(=O)NCCCC[C@H](NC(=O)N[C@@H](CCC(=O)O)C(=O)O)C(=O)O` [Compound 85], for which, in assay [2], the IC50 amounted to 10.6 nM and the Ki is 0.0759 nM.

Regarding `CC(=O)NCCOCCOCCOCCC(=O)N(CCCOc1cc(C(F)(F)F)cc(C(F)(F)F)c1)CC(=O)N[C@@H](Cc1ccc2ccccc2c1)C(=O)NCCCC[C@H](NC(=O)N[C@@H](CCC(=O)O)C(=O)O)C(=O)O` [Compound 86], in assay [1], the Kon is 339000 1.ms and the koff came out at 0.000397 s⁻¹.

As to `CC(=O)NCCOCCOCCOCCC(=O)N1C[C@H](NC(=O)CCCOc2cc(C#N)cc(C#N)c2)C[C@H]1C(=O)NCC(=O)N[C@@H](Cc1ccc2ccccc2c1)C(=O)NCCCC[C@H](NC(=O)N[C@@H](CCC(=O)O)C(=O)O)C(=O)O` [Compound 91], in assay [1], the Kon is listed as 71500 1.ms and the koff amounted to 0.000258 s⁻¹.

On to `CC(=O)NCCOCCOCCOCCC(=O)N[C@@H]1C[C@@H](C(=O)NCC(=O)N[C@@H](Cc2ccc3ccccc3c2)C(=O)NCCCC[C@H](NC(=O)N[C@@H](CCC(=O)O)C(=O)O)C(=O)O)N(C(=O)CCCOc2cc(C#N)cc(C#N)c2)C1` [Compound 92], for which, in assay [1], the Kon is reported as 297000 1.ms and the koff was 0.000301 s⁻¹.

On to `CC(=O)NCCOCCOCCOCCC(=O)N[C@@H](Cc1ccc(C(=O)O)cc1)C(=O)NCC(=O)N[C@@H](Cc1ccc2ccccc2c1)C(=O)NCCCC[C@H](NC(=O)N[C@@H](CCC(=O)O)C(=O)O)C(=O)O` [Compound 94], for which, in assay [1], the Kon was 112000 1.ms and the koff was 0.000261 s⁻¹.

Source of the values: patent publication US20250213705A1, “PSMA TARGETING LIGANDS AND METHODS OF USE” (Bright Peak Therapeutics AG, priority 2023, published 2025).
